Key:
P388/0 = test: In vitro cytotoxicity assay (Alamar Blue), P388/0 cells; type: cell-based; details: 3 days incubation
Experimental: Cell Lines and Cytotoxicity Assays. Studies using P388/0 cell lines for IC50 (drug concentration inhibiting growth of cells by 50%) were maintained and conducted using standard procedures. Briefly, for IC50 determination, cells were seeded into the microwell plates at a density of 2×10^3 cells per 50 μL per well. Plates were incubated at 37° C. in a humidified incubator with 5% CO2 for 3 days. Cell growth was measured by the addition of 10 μL/well of Alamar Blue (Alamar Biosciences, Inc., Sacramento, Calif.) and the plates were incubated a further 4 hours at 37° C. The IC50 values for each compound were determined from absorbance versus dilution factor plots. All cell cultures for animal implantation were maintained at 37° C. in a humidified atmosphere of 5% CO2/[…] and subcultured once a week. All cell lines were periodically tested for Mycoplasma and were Mycoplasma free.

[1] = test system: subcutaneous human non-small cell lung carcinoma (LX-1); test: In vivo efficacy against subcutaneous LX-1 tumor xenograft in nude mice; details: for Effectiveness in LX-1 solid tumor model (in words): Ara-C 100 mg/kg/dose, PEG-ara-C 20 mg/kg/dose (one fifth of native dose), i.v. x4; for Mean Vol. ± SEM at Day 24 / % Change ± SEM at Day 24 (mean percent change in individual tumor volumes from initial): LX-1 s.c. in nude mice, PEG-Ara-C 80 mg/kg; for Mean Vol. ± SEM at Day 24: i.v. x4 doses (day 1, 4, 7, 10), baseline 300 mm^3; for Mean Vol. ± SEM at Day 24 / % Change ± SEM at Day 24 (mean percent change in individual tumor volumes from initial) / T/C (%) at Day 7 / T/C (%) at Day 24 / Regression at Day 24 (#/Grp) / Complete Regression (#/Grp): total dose Ara-C 400 mg/kg; for % Change ± SEM at Day 24 (mean percent change in individual tumor volumes from initial): i.v. x4 doses; for T/C (%) at Day 7: median tumor volume treated vs control when control median approx. 1000 mm^3 (day 7); for T/C (%) at Day 7 / T/C (%) at Day 24 / Regression at Day 24 (#/Grp) / Complete Regression (#/Grp): PEG-Ara-C 80 mg/kg i.v.; for T/C (%) at Day 24: median tumor volume treated vs control when control median approx. 2400 mm^3 (day 24); for Regression at Day 24 (#/Grp): smaller tumor volume on day 24 compared to day 1
Experimental: Athymic nude mice were implanted subcutaneous with a 4-5 mm^3 tissue fragment of LX-1 collected from donor mice. The tumor trocar site was observed twice weekly and measured once palpable. […] The mice were sorted to evenly distribute tumor size, grouped into 6 to 7 mice per group, and ear punched for permanent identification. Drugs were administered intravenously every 3 days×4 doses (day 1, 4, 7 and 10) via the tail vein at an approximate rate of 0.5 mL per minute. […] Therefore, this study compares the PEG-conjugate at one fifth the native dose, and presumably much less than its MTD. Mouse weight and tumor size were measured at the beginning of study and twice weekly through week 4. Drug effectiveness were determined by comparing tumor growth in treated versus untreated (no vehicle) control mice. Five types of endpoints were used as the basis for comparison: (a) mean tumor volumes at day 24; (b) mean percent change in individual tumor volumes from initial; (c) percent difference in tumor volume (%T/C), measured when the control group's median tumor volume reached approximately 800-1100 mm^3 (exponential growth phase); (d) percent difference in tumor volume (%T/C) at day 24 and (e) the number of tumor regression (smaller tumor volume on day 24 compared to day 1) per group.

PEG-amide-Gemcitabine [PEG-Gemcitabine] showed an IC50 (P388/0) of 46 nM.

Nc1ccn([C@@H]2O[C@H](CO)[C@@H](O)C2(F)F)c(=O)n1 [Gemcitabine, gemcitabine] gave an IC50 (P388/0; Mus musculus, 72 h) of 2 nM.

With Nc1ccn([C@@H]2O[C@H](CO)[C@@H](O)[C@@H]2O)c(=O)n1 [Ara-C, 1-(β-D-arabinofuranosyl)cytosine] the “Effectiveness in LX-1 solid tumor model (in words)” value [1] was “ineffective”, the “Mean Vol. ± SEM at Day 24” value [1] was 3192.5 mm^3 and the “% Change ± SEM at Day 24 (mean percent change in individual tumor volumes from initial)” value [1] was 1514.8%. The “T/C (%) at Day 7” value [1] was 112.2%, the “T/C (%) at Day 24” value [1] was 144.6% and the “Regression at Day 24 (#/Grp)” value [1] was 0/7. The “Complete Regression (#/Grp)” value [1] was 0/7 and the IC50 (P388/0; Mus musculus, 72 h) was 10 nM.

With PEG-amide-Ara-C [PEG-Ara-C] the “Effectiveness in LX-1 solid tumor model (in words)” value [1] was “significant tumor growth inhibition”, the “Mean Vol. ± SEM at Day 24” value [1] was 2205.0 mm^3 and the “% Change ± SEM at Day 24 (mean percent change in individual tumor volumes from initial)” value [1] was 557.4%. For the same compound, the “T/C (%) at Day 7” value [1] was 76.4%, the “T/C (%) at Day 24” value [1] was 73.0% and the “Regression at Day 24 (#/Grp)” value [1] was 1/6. For the same compound, the “Complete Regression (#/Grp)” value [1] was 1/6 and the IC50 (P388/0) was 12 nM.

— US6376470B1, “Polymer conjugates of ara-C and ara-C derivatives” (Enzon, Inc., priority 1999, dated 2002)
